In ChEMBL document CHEMBL5113529, “Design, Synthesis, and Biological Evaluation of Dual-Target COX-2/CYP51 Inhibitors for the Treatment of Fungal Infectious Diseases” (J Med Chem, 2022):
≈ marks a conversion by molar mass, not a printed value. Calls of active or inactive are those of the source. The calls are words filed in the database; no cut-off is given here.

Experiments:
Cryptococcus neoformans = test: Antifungal activity against Cryptococcus neoformans ZKCC 2209 assessed as fungal growth inhibition measured after 72 hrs by double dilution method; format: functional
[1] = target: T1, Lanosterol 14-alpha demethylase (Candida albicans (strain SC5314 / ATCC MYA-2876) (Yeast), UniProt P10613); test: Inhibition of CYP51 in Candida albicans ATCC SC5314 assessed as unknown sterol level at 4 ug/ml incuabted for 48 hrs by GC-MS analysis (reference value: 2.47%); design: scale not given: the % may be the effect or the level left; settings: at 4 µg/mL
T1 sequence (P10613 whole entry): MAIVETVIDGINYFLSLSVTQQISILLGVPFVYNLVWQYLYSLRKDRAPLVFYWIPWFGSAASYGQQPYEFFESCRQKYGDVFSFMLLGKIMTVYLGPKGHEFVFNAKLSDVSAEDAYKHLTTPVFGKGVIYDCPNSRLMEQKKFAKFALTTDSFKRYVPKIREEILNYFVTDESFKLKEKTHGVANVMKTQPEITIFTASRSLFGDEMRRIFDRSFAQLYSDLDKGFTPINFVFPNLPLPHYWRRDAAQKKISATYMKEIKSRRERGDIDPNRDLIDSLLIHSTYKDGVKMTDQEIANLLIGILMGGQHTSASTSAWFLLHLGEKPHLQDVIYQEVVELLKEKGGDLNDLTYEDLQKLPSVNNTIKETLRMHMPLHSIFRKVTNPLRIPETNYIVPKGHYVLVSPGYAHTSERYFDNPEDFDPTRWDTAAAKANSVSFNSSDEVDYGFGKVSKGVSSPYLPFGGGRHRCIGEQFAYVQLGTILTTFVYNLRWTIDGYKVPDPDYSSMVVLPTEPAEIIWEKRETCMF

Candida albicans [2] = test: Antifungal activity against fluconazole -resistant Candida albicans 901 assessed as fungal growth inhibition measured after 72 hrs by double dilution method; format: functional
Mus musculus [3] = organism: Mus musculus; test: Immunostimulatory activity in mouse infected with Candida albicans ATCC SC5314 assessed as increase in CD8+ expression level in spleen by immunohistochemical analysis; format: functional
Mus musculus [4] = organism: Mus musculus; test: Antiinflammatory activity in mouse infected with Candida albicans ATCC SC5314 assessed as reduction in MMP-9 expression in spleen by hematoxylin staining based inverted microscopic analysis (reference value: 36.74 a.u.); format: functional
Candida albicans [5] = test: Induction of mitochondrial membrane potential loss in Candida albicans ATCC SC5314 assessed as depolarized cells at 1 umol/ml incubated for 24 hrs by JC-1 staining based flow cytometry assay (reference value: 0.76 to 3.29%); format: functional; settings: dose 1 µmol/L, at 1 µM
Candida albicans [6] = test: Antifungal activity against Candida albicans ATCC SC5314 assessed as decrease in fungal cell density measured at 48 hrs by fluorescence microscopy (reference value: 258%); format: functional; design: scale not given: the % may be the effect or the level left
[7] = target: T1, Lanosterol 14-alpha demethylase; test: Inhibition of CYP51 in Candida albicans ATCC SC5314 assessed as ergosterol level at 4 ug/ml incuabted for 48 hrs by GC-MS analysis (reference value: 96.48%); design: scale not given: the % may be the effect or the level left; settings: at 4 µg/mL
[8] = Toxicity in mouse infected with Candida albicans assessed as AST level in plasma at 10 ug per 20 g, ip administered on day 2, 4, 6, 8, 10 and 12 and measured on day 14 (reference value: 74.9 +/- 6.7 IU/L); format: organism-based; settings: in vivo, 336 h, dose 10 µg, time 14 day
Candida albicans [9] = test: Induction of apoptosis in Candida albicans ATCC SC5314 assessed as normal cells incuabted for 24 hrs by V-FITC/PI staining based flow cytometry analysis (reference value: 96.78%); format: functional
Candida albicans [10] = test: Antifungal activity against Candida albicans ATCC SC5314 assessed as decrease in fungal cell density measured immediately by fluorescence microscopy (reference value: 126%); format: functional; design: scale not given: the % may be the effect or the level left
Candida albicans [11] = test: Antifungal activity against fluconazole -resistant Candida albicans CaR assessed as fungal growth inhibition measured after 72 hrs by double dilution method; format: functional
Pichia kudriavzevii = test: Antifungal activity against Candida krusei ATCC 6258 assessed as fungal growth inhibition measured after 72 hrs by double dilution method; format: functional
Candida albicans [12] = test: Antifungal activity against fluconazole- resistant Candida albicans 17# assessed as fungal growth inhibition measured after 72 hrs by double dilution method; format: functional
Mus musculus [13] = organism: Mus musculus; test: Immunostimulatory activity in mouse infected with Candida albicans ATCC SC5314 assessed as increase in CD3+ expression level in spleen by immunohistochemical analysis; format: functional
[14] = target: T1, Lanosterol 14-alpha demethylase; test: Inhibition of CYP51 in Candida albicans ATCC SC5314 assessed as eburicol level at 4 ug/ml incuabted for 48 hrs by GC-MS analysis (reference value: 1.05%); design: scale not given: the % may be the effect or the level left; settings: at 4 µg/mL
Candida albicans [15] = test: Antifungal activity against fluconazole -resistant Candida albicans 632 assessed as fungal growth inhibition measured after 72 hrs by double dilution method; format: functional
Candida albicans [16] = test: Induction of mitochondrial membrane potential loss in Candida albicans ATCC SC5314 assessed as polarized cells at 1 umol/ml incubated for 24 hrs by JC-1 staining based flow cytometry assay (reference value: 0.69%); format: functional; settings: dose 1 µmol/L, at 1 µM
Mus musculus [17] = organism: Mus musculus; test: Antiinflammatory activity against mouse infected with Candida albicans ATCC SC5314 assessed as reduction in MMP-9 expression in spleen by Western blot analysis; format: functional, organism-based
[18] = Toxicity in mouse infected with Candida albicans assessed as ALT level in plasma at 10 ug per 20 g, ip administered on day 2, 4, 6, 8, 10 and 12 and measured on day 14 (reference value: 43.6 +/- 4.4 IU/L); format: organism-based; settings: in vivo, 336 h, dose 10 µg, time 14 day
Candida albicans [19] = test: Induction of apoptosis in Candida albicans ATCC SC5314 assessed as late apoptotic cells incuabted for 24 hrs by V-FITC/PI staining based flow cytometry analysis (reference value: 0.36%); format: functional
[20] = target: T1, Lanosterol 14-alpha demethylase; test: Inhibition of CYP51 in Candida albicans ATCC SC5314 assessed as lanosterol level at 4 ug/ml incuabted for 48 hrs by GC-MS analysis relative to control; design: scale not given: the % may be the effect or the level left; settings: at 4 µg/mL
Aspergillus fumigatus = test: Antifungal activity against Aspergillus fumigatus KM8001 assessed as fungal growth inhibition measured after 72 hrs by double dilution method; format: functional
[21] = target: T1, Lanosterol 14-alpha demethylase; test: Inhibition of CYP51 in Candida albicans SC5314 using Eburicol as substrate preincubated for 20 mins followed by substrate addition and measured after 4 mins by HPLC analysis; format: single protein
[22] = Toxicity in mouse infected with Candida albicans assessed as BUN level in plasma at 10 ug per 20 g, ip administered on day 2, 4, 6, 8, 10 and 12 and measured on day 14 (reference value: 8.2 +/- 0.5 mmol/L); format: organism-based; settings: in vivo, 336 h, dose 10 µg, time 14 day
Candida albicans [23] = test: Induction of apoptosis in Candida albicans ATCC SC5314 assessed as mid apoptotic cells incuabted for 24 hrs by V-FITC/PI staining based flow cytometry analysis (reference value: 1.09%); format: functional
Mus musculus [24] = organism: Mus musculus; test: Antiinflammatory activity against mouse infected with Candida albicans ATCC SC5314 assessed as reduction in COX-2 expression in spleen by Western blot analysis; format: functional; design: scale not given: the % may be the effect or the level left
Candida tropicalis = test: Antifungal activity against Candida tropicalis ATCC 1369 assessed as fungal growth inhibition measured after 72 hrs by double dilution method; format: functional
Mus musculus [25] = organism: Mus musculus; test: Immunostimulatory activity in mouse infected with Candida albicans ATCC SC5314 assessed as reduction in PD-L1 expression in spleen by western blot analysis relative to control; format: functional; design: scale not given: the % may be the effect or the level left
[26] = target: Prostaglandin G/H synthase 1 (Homo sapiens, UniProt P23219); test: Inhibition of COX-1 (unknown origin) using arachidonic acid as substrate preincubated for 10 mins followed by substrate addition and measured after 2 mins by immunoassay
Prostaglandin G/H synthase 1, sequence (P23219 whole entry): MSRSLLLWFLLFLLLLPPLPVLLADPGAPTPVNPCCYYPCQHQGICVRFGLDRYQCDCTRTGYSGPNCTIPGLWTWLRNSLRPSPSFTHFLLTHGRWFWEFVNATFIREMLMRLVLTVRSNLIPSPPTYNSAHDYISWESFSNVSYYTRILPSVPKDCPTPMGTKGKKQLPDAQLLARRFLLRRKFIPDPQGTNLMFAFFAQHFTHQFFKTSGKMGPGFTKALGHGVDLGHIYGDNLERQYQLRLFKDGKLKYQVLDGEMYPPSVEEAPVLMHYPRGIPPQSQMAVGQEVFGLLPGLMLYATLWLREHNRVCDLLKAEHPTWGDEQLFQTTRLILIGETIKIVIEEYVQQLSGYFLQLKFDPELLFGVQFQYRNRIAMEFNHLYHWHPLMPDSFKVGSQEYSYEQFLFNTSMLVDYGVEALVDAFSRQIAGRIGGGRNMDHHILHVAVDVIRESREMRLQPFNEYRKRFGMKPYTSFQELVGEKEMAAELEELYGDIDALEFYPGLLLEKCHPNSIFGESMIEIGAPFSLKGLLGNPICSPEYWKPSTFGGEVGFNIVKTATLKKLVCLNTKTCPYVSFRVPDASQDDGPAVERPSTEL

Candida albicans [27] = test: Antifungal activity against Candida albicans ATCC SC5314 assessed as fungal growth inhibition measured after 72 hrs by double dilution method; format: functional
Candida albicans [28] = test: Induction of mitochondrial membrane potential loss in Candida albicans ATCC SC5314 assessed as normal cells at 1 umol/ml incubated for 24 hrs by JC-1 staining based flow cytometry assay (reference value: 95.26%); format: functional; settings: dose 1 µmol/L, at 1 µM
Candida albicans [29] = test: Induction of apoptosis in Candida albicans ATCC SC5314 assessed as necrotic cells incuabted for 24 hrs by V-FITC/PI staining based flow cytometry analysis (reference value: 1.77%); format: functional
Candida albicans [30] = test: Antifungal activity against fluconazole -resistant Candida albicans 904 assessed as fungal growth inhibition measured after 72 hrs by double dilution method; format: functional
Candida albicans [31] = test: Antifungal actvity against Candida albicans ATCC SC5314 infected in mouse assessed as reduction in fungal infection at 10 ug per 20 g, ip administered on day 2, 4, 6, 8, 10 and 12 and measured on day 14; format: functional, organism-based; settings: dose 10.0 µg, time 14.0 day

SMILES | MIC50 (Cryptococcus neoformans) [µg/mL] | Activity [1] [%] | MIC50 (Candida albicans [2]) [µg/mL] | Activity (Mus musculus [3]) | Activity (Candida albicans [5]) [%] | Activity (Candida albicans [6]) [%] | Activity [7] [%] | Activity [8] [IU/L] | Activity (Candida albicans [9]) [%] | Activity (Candida albicans [10]) [%] | MIC50 (Candida albicans [11]) [µg/mL] | MIC50 (Pichia kudriavzevii) [µg/mL] | MIC50 (Candida albicans [12]) [µg/mL] | Activity (Mus musculus [13]) | Activity [14] [%] | MIC50 (Candida albicans [15]) [µg/mL] | Activity (Candida albicans [16]) [%] | Activity [18] [IU/L] | Activity (Candida albicans [19]) [%] | Activity [20] [%] | also measured
CC(C)NC(=O)[C@@H](Cn1ccnc1)NC(=O)[C@@H](C)c1cccc(C(=O)c2ccccc2)c1 | 0.5 (≈ 1.16 µM) | 11.8 | 2 (≈ 4.62 µM) | Active | 0.76 | 72 | 11.27 | 69.8 | 53.73 | 121 | 1 (≈ 2.31 µM) | 0.25 (≈ 0.578 µM) | 2 (≈ 4.62 µM) | Active | 37.35 | 4 (≈ 9.25 µM) | 0.39 | 41.2 | 12.5 | 39.58 | Activity (Mus musculus [4]): 12.13 a.u.; Activity (Mus musculus [17]): Active; MIC50 (Aspergillus fumigatus): 2 µg/mL (≈ 4.62 µM); IC50 [21]: 150 nM; Activity [22]: 12.1 mmol/L; Activity (Candida albicans [23]): 2.81%; Activity (Mus musculus [24]): 18.41%; MIC50 (Candida tropicalis): 0.5 µg/mL (≈ 1.16 µM); Activity (Mus musculus [25]): 9.84%; IC50 [26]: > 50000 nM; MIC50 (Candida albicans [27]): 0.125 µg/mL (≈ 0.289 µM); Activity (Candida albicans [28]): 62.2%; Activity (Candida albicans [29]): 30.96%; MIC50 (Candida albicans [30]): 4 µg/mL (≈ 9.25 µM); Activity (Candida albicans [31]): Active
OC(Cn1cncn1)(Cn1cncn1)c1ccc(F)cc1F [FLUCONAZOLE] | 0.5 (≈ 1.63 µM) | 11.4 | > 8 | 2.5 | 0.37 | 75 | 13.19 | 81.6 | 68.17 | 119 | > 8 | 1 (≈ 3.27 µM) | > 8 | 2.5 | 40.24 | > 8 | 0.39 | 37.5 | 1.56 | 35.17 | MIC50 (Aspergillus fumigatus): > 8 µg/mL; IC50 [21]: 140 nM; Activity [22]: 9.7 mmol/L; Activity (Candida albicans [23]): 0.4%; Activity (Mus musculus [24]): 47.23%; MIC50 (Candida tropicalis): 0.5 µg/mL (≈ 1.63 µM); Activity (Mus musculus [25]): 31.81%; MIC50 (Candida albicans [27]): 0.5 µg/mL (≈ 1.63 µM); Activity (Candida albicans [28]): 81.14%; Activity (Candida albicans [29]): 29.87%; MIC50 (Candida albicans [30]): > 8 µg/mL; Activity (Candida albicans [31]): Active
COc1ccc2cc([C@H](C)C(=O)NC(Cn3cncn3)C(=O)c3ccccc3)ccc2c1 (some centres not stated) | 0.125 (≈ 0.292 µM) | 9.61 | 1 (≈ 2.33 µM) | Active | 3.14 | 62 | 8.62 | 75.1 | 50.92 | 115 | 1 (≈ 2.33 µM) | 0.25 (≈ 0.583 µM) | 1 (≈ 2.33 µM) | Active | 35.68 | 4 (≈ 9.34 µM) | 0.81 | 39.4 | 22.73 | 46.09 | Activity (Mus musculus [4]): 12.13 a.u.; Activity (Mus musculus [17]): Active; MIC50 (Aspergillus fumigatus): 2 µg/mL (≈ 4.67 µM); IC50 [21]: 80 nM; Activity [22]: 10.5 mmol/L; Activity (Candida albicans [23]): 14.76%; Activity (Mus musculus [24]): 11.32%; MIC50 (Candida tropicalis): 0.125 µg/mL (≈ 0.292 µM); Activity (Mus musculus [25]): 12.36%; IC50 [26]: > 50000 nM; MIC50 (Candida albicans [27]): 0.25 µg/mL (≈ 0.583 µM); Activity (Candida albicans [28]): 44.19%; Activity (Candida albicans [29]): 11.59%; MIC50 (Candida albicans [30]): 2 µg/mL (≈ 4.67 µM); Activity (Candida albicans [31]): Active
